Reference: ChEMBL document CHEMBL3864190, “Discovery of Pyrazolopyrimidine Derivatives as Novel Dual Inhibitors of BTK and PI3Kδ” (ACS Med Chem Lett, 2016)
pIC50: −log10 of the molar value.

What was measured:
[1] = target: T1, Phosphatidylinositol 4,5-bisphosphate 3-kinase catalytic subunit delta isoform (Homo sapiens) (UniProt O00329); experiment: Inhibition of PI3Kdelta (unknown origin) using biotinylated PIP2 as substrate at 100 nM in presence of streptavidin-APC by FRET assay
T1 sequence (whole entry): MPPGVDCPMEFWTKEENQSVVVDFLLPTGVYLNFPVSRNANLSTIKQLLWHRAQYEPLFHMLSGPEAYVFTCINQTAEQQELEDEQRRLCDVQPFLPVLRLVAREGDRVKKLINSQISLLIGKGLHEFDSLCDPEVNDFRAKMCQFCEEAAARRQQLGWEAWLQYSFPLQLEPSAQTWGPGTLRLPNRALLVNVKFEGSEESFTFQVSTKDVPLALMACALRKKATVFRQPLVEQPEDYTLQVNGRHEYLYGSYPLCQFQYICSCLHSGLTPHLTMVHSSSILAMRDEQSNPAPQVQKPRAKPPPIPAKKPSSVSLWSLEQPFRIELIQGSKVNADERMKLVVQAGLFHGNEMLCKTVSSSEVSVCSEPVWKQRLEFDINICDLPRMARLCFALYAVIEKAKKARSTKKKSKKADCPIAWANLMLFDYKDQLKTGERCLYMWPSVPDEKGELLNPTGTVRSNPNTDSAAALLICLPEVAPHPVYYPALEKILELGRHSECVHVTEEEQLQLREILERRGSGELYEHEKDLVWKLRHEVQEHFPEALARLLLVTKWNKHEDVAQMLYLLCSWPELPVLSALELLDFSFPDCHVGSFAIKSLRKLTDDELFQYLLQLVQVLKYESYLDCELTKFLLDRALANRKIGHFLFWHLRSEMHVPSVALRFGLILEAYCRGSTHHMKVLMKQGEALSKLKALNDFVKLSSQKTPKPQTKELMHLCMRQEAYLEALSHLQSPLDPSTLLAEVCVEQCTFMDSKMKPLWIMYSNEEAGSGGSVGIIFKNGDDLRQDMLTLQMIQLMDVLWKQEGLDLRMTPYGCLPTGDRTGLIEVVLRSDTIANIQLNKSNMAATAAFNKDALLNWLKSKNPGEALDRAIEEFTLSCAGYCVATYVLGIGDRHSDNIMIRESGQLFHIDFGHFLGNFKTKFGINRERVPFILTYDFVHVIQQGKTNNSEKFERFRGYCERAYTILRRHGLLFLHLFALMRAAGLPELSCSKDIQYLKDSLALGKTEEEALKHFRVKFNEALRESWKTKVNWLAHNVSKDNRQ

[2] = target: T2, Tyrosine-protein kinase BTK (Homo sapiens, UniProt Q06187); settings: at 100 nM
[3] = Drug metabolism in mouse liver microsomes assessed as UGT-mediated compound glucuronidation by measuring parent compound remaining at 5 uM after 30 mins in presence of UDPGA by LC-MS/MS analysis; format: ADME; settings: for remaining at 0.5 h, 5 µM: liver microsomes, read-out: Stability
[4] = Clearance in mouse plasma at 5 mg/kg, iv or 15 mg/kg, po by HPLC/MS analysis; format: ADME, organism-based
[5] = Apparent volume of distribution in mouse plasma at 5 mg/kg, iv or 15 mg/kg, po by HPLC/MS analysis; format: ADME, organism-based; settings: read-out: Vz
[6] = AUC in mouse plasma at 15 mg/kg, po by HPLC/MS analysis; format: ADME, organism-based
[7] = Half life in mouse plasma at 15 mg/kg, po by HPLC/MS analysis; format: ADME, organism-based
[8] = Oral bioavailability in mouse plasma at 15 mg/kg by HPLC/MS analysis; format: ADME, organism-based
[9] = target: T3, Phosphatidylinositol 4,5-bisphosphate 3-kinase catalytic subunit delta isoform (Homo sapiens, UniProt O00329); experiment: Inhibition of PI3Kdelta (unknown origin) using biotinylated PIP2 as substrate in presence of streptavidin-APC by FRET assay
T3 sequence (O00329 whole entry): T1 sequence (whole entry)

[10] = Drug metabolism in mouse liver microsomes assessed as compound oxidation by measuring parent compound remaining at 1 uM after 30 mins in presence of NADPH by LC-MS/MS analysis; format: ADME; settings: for Stability: microsomes, 0.5 h, 1 µM; for remaining at 0.5 h, 1 µM: liver microsomes, read-out: Stability
[11] = Drug metabolism in human liver microsomes assessed as compound oxidation by measuring parent compound remaining at 1 uM after 30 mins in presence of NADPH by LC-MS/MS analysis; format: ADME; settings: for remaining at 0.5 h, 1 µM: liver microsomes, read-out: Stability
[12] = Drug metabolism in rat liver microsomes assessed as compound oxidation by measuring parent compound remaining at 1 uM after 30 mins in presence of NADPH by LC-MS/MS analysis; format: ADME
[13] = Drug metabolism in dog liver microsomes assessed as compound oxidation by measuring parent compound remaining at 1 uM after 30 mins in presence of NADPH by LC-MS/MS analysis; format: ADME, Canis lupus familiaris; settings: 0.5 h
[14] = Efflux ratio of apparent permeability from basolateral to apical side over apical to basolateral side in human Caco2 cells; format: ADME, cell-based; settings: caco-2
[15] = Protein binding in mouse plasma; format: ADME, cell-free
[16] = Clearance in mouse plasma at 2 mg/kg, iv or 10 mg/kg, po by HPLC/MS analysis; format: ADME, organism-based; settings: in vivo
[17] = Apparent volume of distribution in mouse plasma at 2 mg/kg, iv or 10 mg/kg, po by HPLC/MS analysis; format: ADME, organism-based; settings: in vivo
[18] = AUC in mouse plasma at 10 mg/kg, po by HPLC/MS analysis; format: ADME, organism-based
[19] = Half life in mouse plasma at 10 mg/kg, po by HPLC/MS analysis; format: ADME, organism-based
[20] = Oral bioavailability in mouse plasma at 10 mg/kg by HPLC/MS analysis; format: ADME, organism-based
[21] = target: T2, Tyrosine-protein kinase BTK
[22] = Drug metabolism in human liver microsomes assessed as UGT-mediated compound glucuronidation by measuring parent compound remaining at 5 uM after 30 mins in presence of UDPGA by LC-MS/MS analysis; format: ADME; settings: read-out: Stability
[23] = Clearance in mouse plasma at 1 mg/kg, iv or 5 mg/kg, po by HPLC/MS analysis; format: ADME, organism-based
[24] = Apparent volume of distribution in mouse plasma at 1 mg/kg, iv or 5 mg/kg, po by HPLC/MS analysis; format: ADME, organism-based; settings: read-out: Vz
[25] = AUC in mouse plasma at 5 mg/kg, po by HPLC/MS analysis; format: ADME, organism-based
[26] = Half life in mouse plasma at 5 mg/kg, po by HPLC/MS analysis; format: ADME, organism-based
[27] = Oral bioavailability in mouse plasma at 5 mg/kg by HPLC/MS analysis; format: ADME, organism-based

T2 sequence (Q06187 whole entry): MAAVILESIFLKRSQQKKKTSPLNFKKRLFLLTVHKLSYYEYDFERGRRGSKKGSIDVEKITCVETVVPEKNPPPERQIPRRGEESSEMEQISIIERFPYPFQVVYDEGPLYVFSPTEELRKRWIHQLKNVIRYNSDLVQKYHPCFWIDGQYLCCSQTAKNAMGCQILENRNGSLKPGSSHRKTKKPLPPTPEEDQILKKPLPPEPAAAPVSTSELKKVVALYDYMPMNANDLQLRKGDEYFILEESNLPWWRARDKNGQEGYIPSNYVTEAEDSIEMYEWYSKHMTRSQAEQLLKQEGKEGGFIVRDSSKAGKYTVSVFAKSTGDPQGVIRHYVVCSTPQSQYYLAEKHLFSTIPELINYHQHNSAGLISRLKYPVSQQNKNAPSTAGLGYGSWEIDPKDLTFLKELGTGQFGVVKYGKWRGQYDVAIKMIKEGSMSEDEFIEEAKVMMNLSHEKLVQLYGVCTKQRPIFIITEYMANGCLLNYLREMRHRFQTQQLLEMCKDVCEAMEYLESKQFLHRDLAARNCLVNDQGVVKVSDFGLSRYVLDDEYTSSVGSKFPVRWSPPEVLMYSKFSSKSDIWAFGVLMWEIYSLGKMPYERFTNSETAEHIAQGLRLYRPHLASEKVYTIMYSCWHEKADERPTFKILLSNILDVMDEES

Compound: Nc1ncnc2c1c(-c1ccc3nc[nH]c3c1)nn2C1Cc2ccccc2C1
- inhibition [1]: 78%
- inhibition [2]: 9.6%

Compound: Nc1ncnc2c1c(-c1cccc(O)c1)nn2C1Cc2ccccc2C1
- inhibition [1]: 41%
- inhibition [2]: 66%

Compound: Nc1ncnc2c1c(-c1ccc3cc[nH]c3c1)nn2C1Cc2ccccc2C1
- inhibition [1]: 24%
- inhibition [2]: 46%

Compound: Nc1ncnc2c1c(-c1cc(F)c(F)c(F)c1)nn2C1Cc2ccccc2C1
- inhibition [1]: 21%
- remaining at 0.5 h, 5 µM [3]: 85%
- inhibition [2]: 21%

Compound: Nc1ncnc2c1c(-c1ccc(F)c(O)c1)nn2C1Cc2ccccc2C1
- clearance [4]: 122 mL/min/kg
- Vd [5]: 5.45 L/kg
- AUC [6]: 0.211 µM·h
- half-life [7]: 0.8 h
- bioavailability [8]: 3.7%

Compound: Nc1ncnc2c1c(-c1cc(F)c3c(c1)NCCO3)nn2C1CCc2ccccc2C1 (racemic)
- inhibition [1]: 52%
- inhibition [2]: 34%

Compound: Nc1ccc2c(c1)CC(n1nc(-c3cc(F)c4c(c3)NCCO4)c3c(N)ncnc31)C2 (single isomer, unassigned; (-))
- pIC50 [9]: 7.80
- Stability [10]: 11%
- Stability ([3]; microsomes, 0.5 h, 5 µM): 99%
- Stability ([11]; microsomes, 0.5 h, 1 µM): 63%
- Stability ([12]; microsomes, 0.5 h, 1 µM): 46%
- Stability [13]: 32%
- Ratio [14]: 1.7
- PPB [15]: 98%
- CL [16]: 9.83 mL/min/kg
- Vz [17]: 3.44 L/kg
- AUC ([18]; in vivo): 15.2 µM·h
- t1/2 ([19]; in vivo): 1.3 h
- F ([20]; in vivo): 40%
- pIC50 [21]: 7.49

Compound: Cc1ccc(-c2nn(C3Cc4ccccc4C3)c3ncnc(N)c23)cc1O
- pIC50 [9]: 6.76
- pIC50 [21]: 7.37

Compound: Nc1ncnc2c1c(-c1ccc3[nH]cnc3c1)nn2C1Cc2ccccc2C1
- remaining at 0.5 h, 5 µM [3]: 90%

Compound: Nc1ncnc2c1c(-c1cc(O)cc(F)c1)nn2C1Cc2ccccc2C1
- pIC50 [9]: 8.10
- clearance [4]: 85 mL/min/kg
- Vd [5]: 6.01 L/kg
- AUC [6]: 0.177 µM·h
- half-life [7]: 3.1 h
- bioavailability [8]: 2.2%
- remaining at 0.5 h, 1 µM [10]: 25%
- remaining at 0.5 h, 5 µM [3]: < 1%
- remaining at 0.5 h, 1 µM [11]: 67%
- remaining at 0.5 h, 5 µM [22]: 1.3%

Compound: Nc1ccc2c(c1)CC(n1nc(-c3cc(F)c4c(c3)NCCO4)c3c(N)ncnc31)C2 (stereo in doubt; (+)-32)
- pIC50 [9]: 7.33
- Stability [10]: 28%
- remaining at 0.5 h, 5 µM [3]: 93%
- remaining at 0.5 h, 1 µM [11]: 71%
- remaining at 0.5 h, 5 µM [22]: 91%
- remaining at 0.5 h, 1 µM ([12]; liver microsomes, read-out: Stability): 45%
- Stability [13]: 65%
- efflux ratio [14]: 1.3
- fraction unbound ([15]; read-out: PPB (converted)): 0.02
- CL [16]: 24.3 mL/min/kg
- Vz [17]: 0.58 L/kg
- AUC ([18]; plasma, read-out: AUC): 9.28 µM·h
- half-life ([19]; plasma): 1.2 h
- bioavailability ([20]; plasma): 57%
- pIC50 [21]: 7.62

Compound: Nc1ncnc2c1c(-c1cc(F)c3c(c1)NCCO3)nn2C1Cc2cc(F)ccc2C1=O (racemic)
- inhibition [1]: 26%
- inhibition [2]: 6.6%

Compound: Nc1ncnc2c1c(-c1ccc(Br)c(O)c1)nn2C1Cc2ccccc2C1
- clearance [23]: 63.7 mL/min/kg
- Vd [24]: 5.9 L/kg
- AUC [25]: 0.213 µM·h
- half-life [26]: 2.3 h
- bioavailability [27]: 6.9%
- remaining at 0.5 h, 1 µM [10]: 53%
- remaining at 0.5 h, 5 µM [3]: 13%
- remaining at 0.5 h, 1 µM [11]: 66%
- remaining at 0.5 h, 5 µM [22]: 5.2%
